In US6117645A, “Human LH-RH receptor expression cells and use thereof” (Takeda Chemical Industries, Ltd., priority 1994, dated 2000):

Target: T1, human LH-RH receptor (Homo sapiens, UniProt P30968)
T1 construct: cell membrane fraction or whole cells
T1 sequence (P30968 1-328): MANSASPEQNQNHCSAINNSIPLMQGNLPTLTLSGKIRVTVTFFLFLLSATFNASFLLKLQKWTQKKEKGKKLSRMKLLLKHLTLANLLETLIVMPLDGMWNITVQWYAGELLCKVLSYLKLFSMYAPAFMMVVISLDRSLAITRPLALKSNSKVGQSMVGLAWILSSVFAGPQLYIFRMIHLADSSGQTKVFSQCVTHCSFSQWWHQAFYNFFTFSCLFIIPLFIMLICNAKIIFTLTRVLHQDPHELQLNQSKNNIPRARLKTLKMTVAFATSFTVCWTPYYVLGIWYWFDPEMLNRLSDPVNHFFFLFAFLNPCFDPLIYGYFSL
Experiment: [125I]-leuprorelin binding inhibition, CHO cell membrane fraction
Conditions: 2 μl of 2 mM compound in 60% DMSO added to 188 μl of 200 μg/ml membrane fraction with 10 μl of 3.6 nM [125I]-leuprorelin; 25° C., 60 minutes
Protocol: The human LH-RH receptor expression cells (10^9 cells) obtained in Example 2 were suspended in phosphate buffered saline containing 5 mM EDTA (PBS-EDTA), and centrifuged at 100×g for 5 minutes. To cell pellets, 10 ml of a cell homogenating buffer (10 mM NaHCO3, 5 mM EDTA, pH 7.5) was added, followed by homogenization with a Polytron homogenizer. After centrifugation at 400×g for 15 minutes, the supernatant was placed in an ultracentrifugal tube, and centrifuged at 100,000×g for 1 hour to obtain a cell membrane fraction precipitate. This precipitate was suspended in 2 ml of an assay buffer, and centrifuged at 100,000×g for 1 hour. The cell membrane fraction recovered as a precipitate was suspended in 20 ml of the assay buffer again. The suspension was dispensed and stored at -80° C. It was defrosted at every time of use. […]
Using the human LH-RH receptor expression CHO cell membrane fraction, reaction was conducted at 25° C. for 60 minutes. […] After the filtration, the radioactivity of [^125 I]-leuprorelin left on the filter was measured with a gamma-ray counter.
The binding inhibition rate of each sample to be tested was determined according to the following equation: [formula] wherein SB represents the radioactivity when the compound is added, TB represents the maximum binding radioactivity, and NSB represents the non-specific binding radioactivity.

With `CCOC(=O)c1cn(Cc2ccccc2OC)c2sc(-c3ccc(OC)cc3)c(C)c2c1=O` [Reference Example 9] the inhibition at 2000 µM (stock) was 67%.
